For this test, the system named is HT29 intrarenal xenograft, nude mice, tumor weight change. Kind of test: NCI In Vivo Anticancer Drug Screen. Data for tumor model HT29;CX-1 Human Adenocarcinoma (MER+) (intrarenal inoculation) in NU/NU BALB/C (nude) mice. The conditions noted are these: endpoint: mean tumor weight change, higher = larger tumour. As to the method: The antitumor activity of compounds was measured in mice bearing transplantable tumors. Survival or tumor size were measured and the results are expressed as the measurement made in the treated group (T) divided by the measurement made in the vehicle treated control group (C). The tumor model used in this assay is HT29;CX-1 Human Adenocarcinoma (MER+) (intrarenal inoculation) in NU/NU BALB/C (nude) mice

Where [1] appears, read: dose: 150.0 mg/kg/injection, schedule: Q04DX004 (sc), vehicle: saline with Tween-80.
[2] abbreviates: dose: 300.0 mg/kg/injection, schedule: Q04DX004 (sc), vehicle: saline with Tween-80.
[3] abbreviates: dose: 600.0 mg/kg/injection, schedule: Q04DX004 (sc), vehicle: saline with Tween-80.
Setting [4] is: dose: 1200.0 mg/kg/injection, schedule: Q04DX004 (sc), vehicle: saline with Tween-80.
Where [5] appears, read: dose: 75.0 mg/kg/injection, schedule: Q04DX004 (sc), vehicle: saline.
Where [6] appears, read: dose: 150.0 mg/kg/injection, schedule: Q04DX004 (sc), vehicle: saline.
[7] abbreviates: dose: 300.0 mg/kg/injection, schedule: Q04DX004 (sc), vehicle: saline.
The mark [8] stands for this setting: dose: 600.0 mg/kg/injection, schedule: Q04DX004 (sc), vehicle: saline.
Where [9] appears, read: dose: 25.0 mg/kg/injection, schedule: Q04DX004 (sc), vehicle: saline.
The mark [10] stands for this setting: dose: 50.0 mg/kg/injection, schedule: Q04DX004 (sc), vehicle: saline.
Setting [11] is: dose: 200.0 mg/kg/injection, schedule: Q04DX004 (sc), vehicle: saline.
[12] abbreviates: dose: 100.0 mg/kg/injection, schedule: Q04DX004 (sc), vehicle: saline.
Where [13] appears, read: dose: 400.0 mg/kg/injection, schedule: Q01DX010 (sc), vehicle: saline.
[14] abbreviates: dose: 75.0 mg/kg/injection, schedule: Q04DX004 (sc), vehicle: water.
Where [15] appears, read: dose: 150.0 mg/kg/injection, schedule: Q04DX004 (sc), vehicle: water.

Values joined by “and” are separate entries in the source; they are usually repeats but may differ in a detail not shown here. Equal values may be shown once. Results filed as inconclusive are left out.

For the molecule `CCOC(=O)c1ccc(NC(=O)Nc2nncs2)cc1`, the T/C runs as follows: (dose: 100.0 mg/kg/injection, schedule: Q01DX010 (sc), vehicle: distilled water + Tween-80) 52 % of control; (dose: 200.0 mg/kg/injection, schedule: Q01DX010 (sc), vehicle: distilled water + Tween-80) 69 % of control; (dose: 800.0 mg/kg/injection, schedule: Q01DX010 (sc), vehicle: distilled water + Tween-80) 84 % of control.
Take `Nc1nc(N)c(N=O)c(Nc2ccc(Br)cc2)n1`: the T/C reads like this: under setting [1], 106 % of control; under setting [2], 83 % of control; under setting [3], 120 % of control; under setting [4], 115 % of control.
For the molecule `COc1cc(C(=O)c2cocc2C(=O)c2ccc3c(c2)OCO3)cc(OC)c1OC`, the T/C was 103 % of control (dose: 300.0 mg/kg/injection, schedule: Q04DX004 (sc), vehicle: Klucel (hydroxypropylcellulose) (HPC)); 57 % of control (dose: 600.0 mg/kg/injection, schedule: Q04DX004 (sc), vehicle: Klucel (hydroxypropylcellulose) (HPC)); 89 % of control (dose: 1200.0 mg/kg/injection, schedule: Q04DX004 (sc), vehicle: Klucel (hydroxypropylcellulose) (HPC)); 66 % of control (dose: 2400.0 mg/kg/injection, schedule: Q04DX004 (sc), vehicle: Klucel (hydroxypropylcellulose) (HPC)).
With `C[C@@H]1CC[C@]2(C)CC[C@]3(C)C(=CC[C@@H]4[C@@]5(C)CC[C@@H](OC(=O)c6ccc(O)cc6)C(C)(C)[C@@H]5C[C@H](O)[C@]43C)[C@@H]2[C@H]1C(=O)O`, the T/C is 79 % of control (dose: 0.62 mg/kg/injection, schedule: Q04DX004 (sc), vehicle: saline with Tween-80); 109 % of control (dose: 1.25 mg/kg/injection, schedule: Q04DX004 (sc), vehicle: saline with Tween-80); 59 % of control (dose: 2.5 mg/kg/injection, schedule: Q04DX004 (sc), vehicle: saline with Tween-80).
Turning to `COc1cc(Cc2nccc3cc(OC)c(OC)cc23)c(C(C)=O)cc1OC`, the T/C runs as follows: under setting [5], 86 % of control; under setting [6], 84 % of control; under setting [7], 55 % of control; under setting [8], 33 % of control.
Turning to `CC(=O)c1cccc(NC2C(N)C(NC(=O)N(C)C)(C(C)O)C(C)(O)C2(O)COC(=O)c2c(C)cccc2O)c1` (configuration not stated), the T/C runs as follows: (dose: 0.5 mg/kg/injection, schedule: Q04DX004 (ip), vehicle: saline) 124 % of control; (dose: 1.0 mg/kg/injection, schedule: Q04DX004 (ip), vehicle: saline) 93 % of control; (dose: 2.0 mg/kg/injection, schedule: Q04DX004 (ip), vehicle: saline) 75 % of control; (dose: 4.0 mg/kg/injection, schedule: Q04DX004 (ip), vehicle: saline) 100 % of control.
For the molecule `Cc1c(-c2ccc(-c3ccccc3F)cc2)nc2ccc(F)cc2c1C(=O)O`, the T/C was 59 % of control (dose: 12.5 mg/kg/injection, schedule: Q01DX010 (ip), vehicle: water) and 30 % of control (dose: 53.3 mg/kg/injection, schedule: Q01DX009 (ip), vehicle: water).
Take `NC(=O)c1ccc[n+](Cc2c(Cl)cccc2Cl)c1`: the T/C reads like this: under setting [9], 93 % of control; under setting [10], 91 % of control; under setting [11], 205 % of control.
Take `O=P(O)(NCCCl)NCCCl`: the T/C by setting is: (dose: 37.5 mg/kg/injection, schedule: Q04DX004 (sc), vehicle: saline) 54 % of control and 61 % of control; under setting [5], 71 % of control and 80 % of control.
As for `N=c1c(C(=O)OCc2ccccc2)ncc(CCl)n1O`, the T/C reads like this: under setting [1], 67 % of control; under setting [2], 58 % of control; under setting [3], 49 % of control; under setting [4], 75 % of control.
Turning to `CC1(C)COCN1COCCOCN1COCC1(C)C`, the T/C by setting is: under setting [10], 66 % of control; under setting [12], 122 % of control; under setting [11], 58 % of control; (dose: 400.0 mg/kg/injection, schedule: Q04DX004 (sc), vehicle: saline) 122 % of control.
Take `COc1cc(C)c2c(c1C=O)Oc1c(c(C)c(O)c3c1C(O)OC3=O)OC2=O` (configuration not stated): the T/C (dose: 50.0 mg/kg/injection, schedule: Q01DX010 (sc), vehicle: saline) is 42 % of control; the T/C (dose: 100.0 mg/kg/injection, schedule: Q01DX010 (sc), vehicle: saline) was 81 % of control; the T/C under setting [13] is 38 % of control.
For `NC(CNC(=O)CBr)C(=O)O` (configuration not stated), the T/C is 106 % of control (dose: 37.5 mg/kg/injection, schedule: Q04DX004 (sc), vehicle: water); 96 % of control under setting [14]; 43 % of control under setting [15].
Turning to `CC[C@](O)(C(=O)O)c1cc2n(c(=O)c1CO)Cc1cc3ccccc3nc1-2`, where the note is “dose: 31.25 mg/kg/injection, schedule: Q04DX004 (sc), vehicle: saline”, the T/C was 39 % of control.
For the molecule `CC(=O)Oc1ccc[nH]c1=O`, the T/C (dose: 200.0 mg/kg/injection, schedule: Q04DX004 (sc), vehicle: saline with Tween-80) is 88 % of control; the T/C (dose: 400.0 mg/kg/injection, schedule: Q04DX004 (sc), vehicle: saline with Tween-80) was 104 % of control; the T/C (dose: 800.0 mg/kg/injection, schedule: Q04DX004 (sc), vehicle: saline with Tween-80) is 122 % of control.
Turning to `C[C@@H]1C[C@@H]([C@H](O)CC2CC(=O)NC(=O)C2)C(=O)[C@@H](C)C1`, the T/C under setting [5] was 43 % of control.
In the case of `N=C(N)c1ccc(/C=C/c2ccc(C(=N)N)cc2O)cc1`, the T/C under setting [14] was 101 % of control and the T/C under setting [15] was 86 % of control.
As for `Nc1ccc(Cn2ccc3c4c(N)nc(N)nc4ccc32)cc1`, the T/C reads like this: (dose: 18.75 mg/kg/injection, schedule: Q04DX004 (sc), vehicle: saline with Tween-80) 60 % of control; (dose: 37.5 mg/kg/injection, schedule: Q04DX004 (sc), vehicle: saline with Tween-80) 58 % of control.
For `Cn1c(=O)[nH]c2nncnc2c1=O`, the T/C (dose: 60.0 mg/kg/injection, schedule: Q04DX004 (sc), vehicle: water) is 124 % of control.
`C=COC(=O)C(Cc1ccccc1)NC(=O)OCc1ccccc1` (configuration not stated): the T/C is, setting by setting: under setting [1], 100 % of control; under setting [2], 80 % of control; under setting [3], 123 % of control; under setting [4], 60 % of control.
Turning to `O=c1[nH]c(=O)n([C@H]2CCCO2)cc1F`, the T/C (dose: 46.4 mg/kg/injection, schedule: Q01DX010 (ip), vehicle: Klucel (hydroxypropylcellulose) (HPC)) was 41 % of control; the T/C (dose: 69.8 mg/kg/injection, schedule: Q01DX010 (ip), vehicle: Klucel (hydroxypropylcellulose) (HPC)) was 68 % of control; the T/C (dose: 104.6 mg/kg/injection, schedule: Q04DX004 (ip), vehicle: Klucel (hydroxypropylcellulose) (HPC)) was 61 % of control; the T/C (dose: 157.4 mg/kg/injection, schedule: Q04DX004 (ip), vehicle: Klucel (hydroxypropylcellulose) (HPC)) is 40 % of control; the T/C (dose: 157.8 mg/kg/injection, schedule: Q01DX010 (ip), vehicle: Klucel (hydroxypropylcellulose) (HPC)) was 31 % of control; the T/C (dose: 236.7 mg/kg/injection, schedule: Q04DX004 (ip), vehicle: Klucel (hydroxypropylcellulose) (HPC)) is 53 % of control.
Take `CCCCCCCCCCCCCCCCCCOCC(COP(=O)([O-])OCC[N+](C)(C)C)OC` (configuration not stated): under setting [6], the T/C was 121 % of control.
As for `O=C1c2ccccc2C(=O)c2c(NCCNCCO)ccc(O)c21`, the T/C runs as follows: (dose: 12.5 mg/kg/injection, schedule: Q04DX004 (sc), vehicle: saline) 104 % of control; under setting [9], 105 % of control; under setting [12], 74 % of control.
As for `O=C1OC(C(O)CO)C(O)=C1O` (configuration not stated), the T/C runs as follows: under setting [13], 113 % of control; (dose: 800.0 mg/kg/injection, schedule: Q01DX010 (sc), vehicle: saline) 167 % of control.
Take `CC(C)C(N)C(=O)Nc1nncs1` (configuration not stated): the T/C reads like this: under setting [6], 94 % of control; under setting [7], 74 % of control; under setting [8], 68 % of control.

(Values after PubChem BioAssay AID208 (DTP/NCI, 2004).)
